ChEMBL document CHEMBL4689842, “EUbOPEN Chemogenomics Library wave 1” (2021)

Tested on: Fibroblast
Test: Incucyte cell viability with human fibroblast; further: filed as whole numbers so only -1 and 0 and 1 occur
Format: toxicity, cell-based
Conditions: 10 µM, compound concentration 10 uM
[1] = 0 h, replicate number 1, timepoint 0 hours
[2] = 6 h, replicate number 1, timepoint 6 hours
[3] = 12 h, replicate number 1, timepoint 12 hours
[4] = 18 h, replicate number 1, timepoint 18 hours
[5] = 24 h, replicate number 1, timepoint 24 hours
[6] = 0 h, replicate number 2, timepoint 0 hours
[7] = 24 h, replicate number 2, timepoint 24 hours
[8] = 12 h, replicate number 2, timepoint 12 hours
[9] = 18 h, replicate number 2, timepoint 18 hours
[10] = 6 h, replicate number 2, timepoint 6 hours

SMILES | Growth Rate [1] | Growth Rate [2] | Growth Rate [3] | Growth Rate [4] | Growth Rate [5] | Growth Rate [6] | Growth Rate [7] | Growth Rate [8] | Growth Rate [9] | Growth Rate [10]
S=C(NCCCc1c[nH]cn1)NCCCN(Cc1ccc(Cl)c(Cl)c1)c1ccc(Br)cn1 | 0 | 0 | 0 | 0 | 0 | – | – | – | – | –
Cc1cc(C)c(S(=O)(=O)N(Cc2ccc(-c3cccc(S(C)(=O)=O)c3)cc2)Cc2ccc(C(F)(F)F)o2)c(C)c1 | 1 | 1 | 0 | 0 | 0 | 0 | – | – | – | –
CCc1cccc(CC)c1NC(=O)c1nn(C)c2c1CCc1cnc(Nc3ccc(C(=O)NC4CCN(C)CC4)cc3OC(F)(F)F)nc1-2 | 0 | 1 | 0 | 0 | 0 | – | 1 | – | – | –
Cl.Oc1ccc2c3c1O[C@H]1c4[nH]c5c(c4C[C@@]4(O)[C@@H](C2)N(CC2CC2)CC[C@]314)C[C@@]1(O)[C@H]2Cc3ccc(O)c4c3[C@@]1(CCN2CC1CC1)[C@H]5O4 | 0 | 0 | 0 | 0 | 0 | 1 | 1 | 1 | – | –
O=C(Nc1cccnn1)N1CCC(=Cc2cccc(Oc3ccc(C(F)(F)F)cn3)c2)CC1 | 0 | 0 | 0 | 0 | 0 | – | 1 | – | – | –
COc1cc(N2CCN(C)CC2)ccc1Nc1ncc2c(n1)N(C)c1ccccc1C(=O)N2C | 0 | – | 0 | 1 | 1 | – | – | – | – | –
CCNc1cc(N[C@H]2CC[C@H](O)CC2)nc(Nc2ccc3c(ccn3Cc3ccccc3)c2)n1 | – | 0 | 0 | 0 | 0 | – | – | – | – | –
CCOc1cc(C(=O)N2CCC(N3CCN(C)CC3)CC2)ccc1Nc1ncc2c(n1)N(C1CCCC1)c1ccccc1C(=O)N2C | – | 1 | 0 | 0 | 0 | 0 | 1 | – | 1 | –
O=C1N/C(=N/c2ccccc2F)S/C1=C\c1ccc(C(=O)O)cc1 | – | – | – | – | 0 | – | – | – | – | –
CN([C@@H](Cc1ccc(OS(=O)(=O)c2cccc3cnccc23)cc1)C(=O)N1CCN(c2ccccc2)CC1)S(=O)(=O)c1cccc2cnccc12 | 1 | – | 1 | 1 | 0 | – | 1 | 0 | – | 0
O=C(Nc1ccc(Cl)cc1)Nc1cccc(-c2cccc(N3CCCC3)n2)c1 | 0 | 0 | 0 | 0 | 0 | – | – | – | – | –
CCn1c(=O)c(-c2ccc(-c3cncs3)cc2Cl)cc2cnc(Nc3ccc(N4CCN(C)CC4)cc3)nc21 | 0 | – | – | 1 | 0 | – | – | – | – | –
Cc1ccc(C(=O)Nc2cccc(C(F)(F)F)c2)cc1Nc1nc(-c2cccnc2)nc2c1cnn2C | – | 0 | 0 | 0 | 0 | – | – | – | – | –
CCCS(=O)(=O)c1nc(NC2CC2)cc(-c2ccc3c(ccn3C3CC(C)(C)NC(C)(C)C3)c2)n1 | 0 | 0 | 0 | 0 | 0 | – | – | – | 1 | –
COC(=N)c1nc2ccc3ncnc(Nc4ccc(OC)cc4F)c3c2s1 | 0 | – | 1 | 1 | 0 | – | – | – | – | –
CNC(=O)c1ccc(Nc2nc(OC3CCCC3)c3c(-c4ccc5nc(C)oc5c4)c[nH]c3n2)c(OC)c1 | 0 | – | 0 | 0 | 0 | – | – | – | – | 0
CCN1CCN(Cc2ccc(Nc3ncc(F)c(-c4cc(F)c5nc(C)n(C(C)C)c5c4)n3)nc2)CC1.CS(=O)(=O)O | 0 | – | – | 1 | 0 | – | 1 | – | – | –
O=C(Nc1ccc(-c2ccnc(Nc3ccc(N4CCOCC4)cc3)n2)cc1)[C@@H]1CCCN1 | 0 | – | – | 1 | 0 | – | – | – | – | –
CCN(CC)S(=O)(=O)Nc1cccc(-c2ccc3c(NC(=O)C4CC4)n[nH]c3c2)c1 | – | 0 | 0 | 0 | 0 | – | – | – | – | –
CCc1cccc(CC)c1NC(=O)c1nn(C)c2c1CCc1cnc(Nc3ccc(N4CCN(C)CC4)cc3OC)nc1-2 | – | 0 | 0 | 0 | 0 | 1 | – | – | – | –
Cl.O=c1c2cccn2c2ccccc2n1CCCN1CCC(c2ccc(Cl)cc2)CC1 | 1 | 0 | 0 | 0 | 0 | – | – | – | – | –
CNc1cc(Oc2cc(C(=O)Nc3cc(N4CCN(C)CC4)cc(C(F)(F)F)c3)ccc2C)ncn1 | 0 | 0 | 0 | 0 | 0 | – | – | – | – | –
Cl.O=C(c1ccc(Nc2nccc(-c3cc4ccccc4s3)n2)cc1)N1CCC(N2CCCC2)CC1 | 0 | 0 | 0 | 0 | 0 | – | – | – | – | –

SMILES | Growth Rate [1] | Growth Rate [2] | Growth Rate [3] | Growth Rate [4] | Growth Rate [5] | Growth Rate [6] | Growth Rate [7] | Growth Rate [8] | Growth Rate [9] | Growth Rate [10]
COc1ccc(S(=O)(=O)N(CCO)c2ccccc2CN(C)C/C=C/c2ccc(Cl)cc2)cc1.O=P(O)(O)O | – | 0 | 0 | 0 | 0 | 1 | – | – | – | 1
Cc1ccc2nc(NCCN)c3ncc(C)n3c2c1.O=C(O)C(F)(F)F.O=C(O)C(F)(F)F | – | 0 | 0 | 0 | 0 | 0 | – | – | – | –
NC(=O)c1cccc(-c2cc(Nc3ccc(OC(F)(F)F)cc3)ncn2)c1 | 1 | 0 | 0 | 0 | 0 | 0 | 1 | 1 | 1 | 1
CN1C2CCC1CC(OC(c1ccc(F)cc1)c1ccc(F)cc1)C2.Cl (centres undefined) | – | 1 | 1 | 1 | 0 | – | – | 0 | 0 | 0
CCOC(=O)c1c(C)[nH]c2ccc3c(c12)CN1CCc2cc(OC)ccc2C1O3 (centres undefined) | – | 0 | 0 | 0 | 0 | – | – | – | – | –
C=CCn1c(=O)c2cnc(Nc3ccc(N4CCN(C)CC4)cc3)nc2n1-c1cccc(C(C)(C)O)n1 [ADAVOSERTIB] | 0 | 0 | 0 | 0 | 0 | – | – | – | – | –
COc1cc(N2CCC(N3CCN(C)CC3)CC2)ccc1Nc1ncnc(Nc2ccccc2S(=O)(=O)C(C)C)n1 [ASP-3026] | – | 0 | 0 | 0 | 0 | 0 | – | – | – | –
O=C(Nc1ccc(-n2nc(-c3cccnc3)cc2C(F)(F)F)cn1)c1ccc(-c2ccccc2)c(F)c1 [BI 2049] | 0 | 0 | 0 | 0 | 0 | – | – | – | – | –
Cn1nc(C(=O)NCc2ccc(C(=O)O)cc2)cc1-c1ccc2[nH]ccc2c1 [BI 4395] | 0 | – | 1 | 1 | 1 | – | – | – | – | 0
COCC(=O)NC/C=C/c1ccc2ncnc(Nc3ccc(Oc4ccc(C)nc4)c(C)c3)c2c1 [CP-724714] | 0 | – | 1 | 1 | 1 | – | 0 | 0 | 0 | 1
COc1cc2ncnc(Nc3ccc(F)c(Cl)c3)c2cc1NC(=O)/C=C/CN1CCCCC1 [DACOMITINIB ANHYDROUS] | – | 0 | 0 | 0 | 0 | 1 | – | – | – | –
C=C1/C(=C\C=C2/CCC[C@]3(C)[C@@H]([C@H](C)/C=C/[C@H](C)C(C)C)CC[C@@H]23)C[C@@H](O)C[C@@H]1O [DOXERCALCIFEROL] | 0 | – | 1 | 1 | 0 | – | – | 0 | 0 | 0
CCCn1c(=O)c2[nH]c(-c3cnn(Cc4cccc(C(F)(F)F)c4)c3)nc2n(CC)c1=O [GS 6201] | 0 | – | – | 1 | 1 | – | – | – | – | –
CCn1cc(-c2ccnc3[nH]c(-c4cccc(CN(C)C)c4)cc23)c(-c2ccc(NC(=O)N(C)C)cc2)n1 [GSK-1070916] | 0 | 1 | 0 | 0 | 0 | – | – | 1 | – | –
CCN1CCN(c2ccc(Nc3cc(N(C)C(=O)Nc4c(Cl)c(OC)cc(OC)c4Cl)ncn3)cc2)CC1 [INFIGRATINIB] | 0 | 1 | 1 | 0 | 0 | – | – | – | – | –
CN1CCC(=C2c3ccccc3CC(=O)c3sccc32)CC1.O=C(O)/C=C/C(=O)O [KETOTIFEN FUMARATE] | 0 | 0 | 0 | 0 | 0 | – | – | – | – | –
COc1ccc(-c2ccc3c(N4CCOCC4)nc(N4C[C@@H](C)O[C@@H](C)C4)nc3n2)cc1CO [Ku-0063794] | 1 | – | 1 | 1 | 0 | – | – | 0 | 0 | 1
CN(C)C(=O)C(CCN1CCC(O)(c2ccc(Cl)cc2)CC1)(c1ccccc1)c1ccccc1.Cl [LOPERAMIDE HYDROCHLORIDE] | – | 0 | 0 | 0 | 0 | – | – | – | – | –
C[C@H]1Oc2cc(cnc2N)-c2c(nn(C)c2C#N)CN(C)C(=O)c2ccc(F)cc21 [LORLATINIB] | – | 0 | 0 | 0 | 0 | 0 | – | – | – | –
O=C1NC(=O)C(c2cnc3ccccn23)=C1c1cn2c3c(cc(F)cc13)CN(C(=O)N1CCCCC1)CC2 [LY-2090314] | – | 0 | 0 | 0 | 0 | 1 | – | – | – | –
CCOc1cc2ncc(C#N)c(Nc3ccc(OCc4ccccn4)c(Cl)c3)c2cc1NC(=O)/C=C/CN(C)C [NERATINIB] | 0 | – | 1 | 0 | 0 | – | 1 | – | – | –
Cc1cn(-c2cc(NC(=O)c3ccc(C)c(Nc4nccc(-c5cccnc5)n4)c3)cc(C(F)(F)F)c2)cn1 [NILOTINIB] | 0 | 0 | 0 | 0 | 0 | – | – | – | – | –
COc1cccc2cc(-c3nc([C@H]4CC[C@H](C(=O)O)CC4)n4ncnc(N)c34)[nH]c12 [OSI-027] | 0 | – | 0 | 0 | 0 | – | – | 1 | – | –
